# Paper PMC6199744, “Development of Chemical Proteomics for the Folateome and Analysis of the Kinetoplastid Folateome” (ACS Infectious Diseases, 2018)
# Several values for one entry are separate records, joined by “and”; a condition that tells them apart may be missing. Equal values may be shown once. Read-outs that look alike come from different tables or passages of the source.
# Key:
# Assay type in all cases: binding
# [1] = target: T1, HeLa cell extract proteins (Homo sapiens, UniProt O00571)
# T1 construct: endogenous in cells; host or cells: HeLa cell extract
# T1 sequence (O00571 whole entry): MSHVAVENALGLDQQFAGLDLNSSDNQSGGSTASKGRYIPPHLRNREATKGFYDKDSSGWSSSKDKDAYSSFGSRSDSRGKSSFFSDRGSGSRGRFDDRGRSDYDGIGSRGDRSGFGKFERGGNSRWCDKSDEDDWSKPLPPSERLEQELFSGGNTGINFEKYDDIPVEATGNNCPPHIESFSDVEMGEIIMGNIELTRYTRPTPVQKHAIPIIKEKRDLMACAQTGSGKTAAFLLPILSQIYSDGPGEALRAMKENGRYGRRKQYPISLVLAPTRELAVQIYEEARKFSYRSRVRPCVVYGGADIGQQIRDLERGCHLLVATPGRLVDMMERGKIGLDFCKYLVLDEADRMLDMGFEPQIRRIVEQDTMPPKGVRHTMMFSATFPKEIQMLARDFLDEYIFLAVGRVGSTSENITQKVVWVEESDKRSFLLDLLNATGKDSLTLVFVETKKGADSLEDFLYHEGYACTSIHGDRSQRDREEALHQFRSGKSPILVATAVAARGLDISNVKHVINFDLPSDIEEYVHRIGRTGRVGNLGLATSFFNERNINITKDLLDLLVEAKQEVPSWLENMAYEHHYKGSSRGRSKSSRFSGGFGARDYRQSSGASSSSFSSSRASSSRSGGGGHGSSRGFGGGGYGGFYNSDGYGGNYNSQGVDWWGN
# [2] = target: T2, HeLa cell extract proteins (Homo sapiens, UniProt O95429)
# T2 construct: endogenous in cells; host or cells: HeLa cell extract
# T2 sequence (O95429 1-457): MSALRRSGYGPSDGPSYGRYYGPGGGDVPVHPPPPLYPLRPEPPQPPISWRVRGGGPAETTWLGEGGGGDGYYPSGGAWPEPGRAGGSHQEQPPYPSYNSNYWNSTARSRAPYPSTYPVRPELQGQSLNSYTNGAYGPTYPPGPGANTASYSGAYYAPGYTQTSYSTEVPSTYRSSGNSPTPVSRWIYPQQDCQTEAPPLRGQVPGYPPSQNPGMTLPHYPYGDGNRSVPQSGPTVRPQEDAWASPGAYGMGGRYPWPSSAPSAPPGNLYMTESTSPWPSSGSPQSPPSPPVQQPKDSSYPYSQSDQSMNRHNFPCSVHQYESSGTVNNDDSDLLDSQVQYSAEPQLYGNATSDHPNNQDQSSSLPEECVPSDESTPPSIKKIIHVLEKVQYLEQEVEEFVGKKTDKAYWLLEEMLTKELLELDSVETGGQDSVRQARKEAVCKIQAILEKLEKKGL
# [3] = target: T3, HeLa cell extract proteins (Homo sapiens, UniProt P17980)
# T3 construct: endogenous in cells; host or cells: HeLa cell extract
# T3 sequence (P17980 whole entry): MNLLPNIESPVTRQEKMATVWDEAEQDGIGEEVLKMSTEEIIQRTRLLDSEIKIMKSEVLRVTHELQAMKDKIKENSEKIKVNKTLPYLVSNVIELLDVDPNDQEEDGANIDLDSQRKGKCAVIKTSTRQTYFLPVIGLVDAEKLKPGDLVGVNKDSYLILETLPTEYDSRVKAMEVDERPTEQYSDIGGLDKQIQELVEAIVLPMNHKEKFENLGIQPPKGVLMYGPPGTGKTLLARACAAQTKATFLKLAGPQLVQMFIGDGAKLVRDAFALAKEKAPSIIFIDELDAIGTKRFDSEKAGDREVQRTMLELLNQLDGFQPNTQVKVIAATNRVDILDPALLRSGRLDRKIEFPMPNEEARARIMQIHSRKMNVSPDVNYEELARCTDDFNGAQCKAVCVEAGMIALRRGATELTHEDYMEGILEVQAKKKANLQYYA
# [4] = target: T4, HeLa cell extract proteins (Homo sapiens, UniProt Q05048)
# T4 construct: endogenous in cells; host or cells: HeLa cell extract
# T4 sequence (Q05048 1-431): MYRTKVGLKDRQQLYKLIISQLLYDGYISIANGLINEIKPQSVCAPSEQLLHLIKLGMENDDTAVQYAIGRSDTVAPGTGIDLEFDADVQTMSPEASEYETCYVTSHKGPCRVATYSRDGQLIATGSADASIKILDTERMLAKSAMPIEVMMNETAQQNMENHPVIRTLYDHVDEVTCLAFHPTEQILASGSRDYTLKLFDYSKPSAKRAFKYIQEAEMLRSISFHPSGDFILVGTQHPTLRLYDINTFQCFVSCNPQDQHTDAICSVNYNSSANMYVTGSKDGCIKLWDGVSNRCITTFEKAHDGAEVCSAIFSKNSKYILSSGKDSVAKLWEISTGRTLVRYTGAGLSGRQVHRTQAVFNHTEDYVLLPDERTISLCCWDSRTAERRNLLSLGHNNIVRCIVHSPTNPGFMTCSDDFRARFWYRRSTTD
# [5] = target: T5, HeLa cell extract proteins (Homo sapiens, UniProt Q13200)
# T5 construct: endogenous in cells; host or cells: HeLa cell extract
# T5 sequence (Q13200 whole entry): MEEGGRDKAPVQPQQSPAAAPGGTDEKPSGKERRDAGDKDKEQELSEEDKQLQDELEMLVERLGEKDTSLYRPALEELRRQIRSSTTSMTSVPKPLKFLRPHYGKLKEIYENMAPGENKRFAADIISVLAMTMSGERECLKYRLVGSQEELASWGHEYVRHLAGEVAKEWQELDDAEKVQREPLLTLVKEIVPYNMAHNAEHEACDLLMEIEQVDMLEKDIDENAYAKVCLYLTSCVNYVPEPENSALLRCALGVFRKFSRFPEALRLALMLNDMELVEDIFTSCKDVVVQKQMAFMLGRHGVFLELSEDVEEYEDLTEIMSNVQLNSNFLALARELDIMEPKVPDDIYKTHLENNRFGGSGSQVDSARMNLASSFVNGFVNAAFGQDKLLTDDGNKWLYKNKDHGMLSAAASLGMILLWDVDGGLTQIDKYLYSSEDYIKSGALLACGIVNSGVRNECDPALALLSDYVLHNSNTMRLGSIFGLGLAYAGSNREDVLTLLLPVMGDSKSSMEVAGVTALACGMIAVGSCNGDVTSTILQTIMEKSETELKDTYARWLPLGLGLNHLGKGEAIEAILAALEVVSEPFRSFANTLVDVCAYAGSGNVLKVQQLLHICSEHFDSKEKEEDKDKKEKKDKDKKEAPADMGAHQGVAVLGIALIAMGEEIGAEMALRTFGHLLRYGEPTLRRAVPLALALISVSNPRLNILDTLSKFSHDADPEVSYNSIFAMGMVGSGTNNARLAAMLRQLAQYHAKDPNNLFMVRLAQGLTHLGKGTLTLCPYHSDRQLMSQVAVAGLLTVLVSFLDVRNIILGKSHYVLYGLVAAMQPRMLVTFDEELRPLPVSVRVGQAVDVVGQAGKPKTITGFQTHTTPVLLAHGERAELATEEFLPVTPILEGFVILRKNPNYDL
# [6] = target: T6, HeLa cell extract proteins (Homo sapiens, UniProt Q14764)
# T6 construct: endogenous in cells; host or cells: HeLa cell extract
# T6 sequence (Q14764 whole entry): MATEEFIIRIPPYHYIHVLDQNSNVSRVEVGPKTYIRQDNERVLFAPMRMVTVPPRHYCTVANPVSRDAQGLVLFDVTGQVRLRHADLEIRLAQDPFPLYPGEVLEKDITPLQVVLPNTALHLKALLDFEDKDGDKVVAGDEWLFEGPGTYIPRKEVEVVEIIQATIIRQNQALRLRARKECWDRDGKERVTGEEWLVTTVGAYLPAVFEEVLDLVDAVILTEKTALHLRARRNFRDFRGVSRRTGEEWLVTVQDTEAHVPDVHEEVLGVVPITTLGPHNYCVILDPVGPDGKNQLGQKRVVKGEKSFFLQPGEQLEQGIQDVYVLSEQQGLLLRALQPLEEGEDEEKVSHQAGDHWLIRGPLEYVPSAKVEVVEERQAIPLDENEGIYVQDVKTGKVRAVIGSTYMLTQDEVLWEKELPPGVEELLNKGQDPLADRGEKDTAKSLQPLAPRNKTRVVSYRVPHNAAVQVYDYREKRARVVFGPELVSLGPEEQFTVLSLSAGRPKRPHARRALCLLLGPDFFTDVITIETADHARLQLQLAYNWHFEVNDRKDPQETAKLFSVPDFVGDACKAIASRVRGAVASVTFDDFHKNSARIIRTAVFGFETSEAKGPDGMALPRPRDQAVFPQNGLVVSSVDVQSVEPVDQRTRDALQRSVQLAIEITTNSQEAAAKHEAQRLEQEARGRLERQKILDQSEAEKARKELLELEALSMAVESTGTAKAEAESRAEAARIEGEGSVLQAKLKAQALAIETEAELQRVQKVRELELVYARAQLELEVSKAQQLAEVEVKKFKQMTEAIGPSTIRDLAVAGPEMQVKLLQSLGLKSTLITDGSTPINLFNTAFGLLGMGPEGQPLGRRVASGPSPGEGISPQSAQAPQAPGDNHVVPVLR
# [7] = target: T7, HeLa cell extract proteins (Homo sapiens, UniProt Q8WWC4)
# T7 construct: endogenous in cells; host or cells: HeLa cell extract
# T7 sequence (Q8WWC4 97-291): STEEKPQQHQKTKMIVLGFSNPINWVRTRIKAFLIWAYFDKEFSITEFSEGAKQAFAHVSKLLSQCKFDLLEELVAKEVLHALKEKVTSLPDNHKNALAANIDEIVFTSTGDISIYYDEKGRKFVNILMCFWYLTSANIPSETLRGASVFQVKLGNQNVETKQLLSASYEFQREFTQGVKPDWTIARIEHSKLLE
# [8] = target: T8, HeLa cell extract proteins (Homo sapiens, UniProt Q96T76)
# T8 construct: endogenous in cells; host or cells: HeLa cell extract
# T8 sequence (Q96T76 1-1030): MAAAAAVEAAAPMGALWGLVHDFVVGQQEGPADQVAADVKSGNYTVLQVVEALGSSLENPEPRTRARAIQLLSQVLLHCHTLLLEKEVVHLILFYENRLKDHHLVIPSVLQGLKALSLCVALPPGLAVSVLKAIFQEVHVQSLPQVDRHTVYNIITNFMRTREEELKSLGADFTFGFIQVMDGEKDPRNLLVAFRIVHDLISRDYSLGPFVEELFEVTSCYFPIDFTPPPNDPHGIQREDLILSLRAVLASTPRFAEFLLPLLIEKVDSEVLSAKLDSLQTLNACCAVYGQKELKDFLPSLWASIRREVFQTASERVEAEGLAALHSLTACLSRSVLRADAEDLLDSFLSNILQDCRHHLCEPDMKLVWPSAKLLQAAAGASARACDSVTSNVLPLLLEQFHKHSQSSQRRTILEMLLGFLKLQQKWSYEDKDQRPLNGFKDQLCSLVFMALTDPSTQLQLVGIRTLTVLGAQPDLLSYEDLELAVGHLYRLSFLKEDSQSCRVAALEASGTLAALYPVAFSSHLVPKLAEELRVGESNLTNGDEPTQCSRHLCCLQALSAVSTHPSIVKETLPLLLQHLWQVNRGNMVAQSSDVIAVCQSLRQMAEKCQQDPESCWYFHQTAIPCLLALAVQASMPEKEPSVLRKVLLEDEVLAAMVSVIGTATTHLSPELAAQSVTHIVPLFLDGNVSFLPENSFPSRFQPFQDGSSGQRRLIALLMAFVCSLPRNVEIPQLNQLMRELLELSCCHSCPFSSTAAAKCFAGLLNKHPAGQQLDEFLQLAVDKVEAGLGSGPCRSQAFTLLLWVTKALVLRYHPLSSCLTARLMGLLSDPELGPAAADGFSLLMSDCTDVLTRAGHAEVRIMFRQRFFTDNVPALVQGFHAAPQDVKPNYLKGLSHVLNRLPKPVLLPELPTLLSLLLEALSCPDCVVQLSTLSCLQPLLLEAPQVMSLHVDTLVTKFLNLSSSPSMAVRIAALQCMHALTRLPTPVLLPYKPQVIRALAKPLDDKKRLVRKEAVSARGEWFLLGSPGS
# [9] = target: T9, HeLa cell extract proteins (Homo sapiens, UniProt Q9UJX4)
# T9 construct: endogenous in cells; host or cells: HeLa cell extract
# T9 sequence (Q9UJX4 whole entry): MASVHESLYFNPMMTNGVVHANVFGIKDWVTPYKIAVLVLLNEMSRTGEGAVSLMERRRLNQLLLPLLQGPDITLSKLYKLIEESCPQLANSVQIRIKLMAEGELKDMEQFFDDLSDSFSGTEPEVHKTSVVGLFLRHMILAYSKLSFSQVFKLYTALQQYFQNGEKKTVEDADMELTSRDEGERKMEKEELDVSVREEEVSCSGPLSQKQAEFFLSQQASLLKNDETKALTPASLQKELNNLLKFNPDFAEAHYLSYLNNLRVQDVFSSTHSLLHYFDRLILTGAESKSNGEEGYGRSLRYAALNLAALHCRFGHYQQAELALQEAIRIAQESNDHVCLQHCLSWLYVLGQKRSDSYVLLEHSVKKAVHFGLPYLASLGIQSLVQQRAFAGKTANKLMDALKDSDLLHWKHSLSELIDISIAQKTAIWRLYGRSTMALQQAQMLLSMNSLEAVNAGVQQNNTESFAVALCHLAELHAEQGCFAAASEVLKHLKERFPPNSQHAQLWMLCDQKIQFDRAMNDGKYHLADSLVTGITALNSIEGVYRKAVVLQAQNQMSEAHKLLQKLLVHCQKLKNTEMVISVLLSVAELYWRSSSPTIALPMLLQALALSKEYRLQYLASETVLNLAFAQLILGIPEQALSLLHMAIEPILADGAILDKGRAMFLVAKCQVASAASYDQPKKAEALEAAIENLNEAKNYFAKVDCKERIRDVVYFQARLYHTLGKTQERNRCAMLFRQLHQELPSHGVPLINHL
# [10] = system: HeLa cell extract proteins
# [11] = HeLa, captured protein LOC442497
# [12] = HeLa, protein ABCB7 (ISOFORM 2 OF ATP-BINDING CASSETTE SUB-FAMILY B MEMBER 7, MIT[…])
# [13] = HeLa, protein ASAH1 (N-ACYLSPHINGOSINE AMIDOHYDROLASE (ACID CERAMIDASE) 1 ISOFORM B)
# [14] = HeLa, protein GTPBP3 (ISOFORM 2 OF TRNA MO[…] GTPBP3, MIT[…])
# [15] = HeLa, protein MYL6 (ISOFORM SMOOTH MUSCLE OF MYOSIN LIGHT POLYPEPTIDE 6)
# [16] = HeLa, protein PSMA1 (ISOFORM LONG OF […] ALPHA TYPE 1)
# [17] = HeLa, protein PSME1 ([…] SUBUNIT 1 ISOFORM 2)
SMILES,"fold changes relative to vehicle control ([3]; protein PSMC3, HeLa)","fold changes relative to vehicle control ([5]; protein PSMD2, HeLa)","fold changes relative to vehicle control ([6]; HeLa, protein MVP)","fold changes relative to vehicle control ([10]; HeLa, captured protein EIF1AP1)","fold changes relative to vehicle control [10, 11]","fold changes relative to vehicle control [10, 12]","fold changes relative to vehicle control [10, 13]","fold changes relative to vehicle control [10, 14]","fold changes relative to vehicle control ([10]; HeLa, protein LOC654188)","fold changes relative to vehicle control [10, 15]","fold changes relative to vehicle control ([10]; HeLa, protein NME1-NME2)","fold changes relative to vehicle control [10, 16]","fold changes relative to vehicle control [10, 17]","fold changes relative to vehicle control ([10]; HeLa, protein RPLP0-LIKE)","fold changes relative to vehicle control ([10]; protein HIST2H2BA, HeLa)","fold changes relative to vehicle control ([10]; protein LOC646960, HeLa)",other results
Nc1nc2cccc(-c3ccccc3)c2n1Cc1ccc(Cl)c(Cl)c1 [compound 3],1.03,1.01,1.02,,,,,,,,,,,,,,"fold changes relative to vehicle control ([1]; protein DDX3X, HeLa): 0.94; fold changes relative to vehicle control ([2]; captured protein BAG4, HeLa): 1.25; fold changes relative to vehicle control ([4]; HeLa, protein CSTF1): 0.98; fold changes relative to vehicle control ([7]; HeLa, protein C2ORF47): 1.11; fold changes relative to vehicle control ([8]; captured protein MMS19, HeLa): 1.02; fold changes relative to vehicle control ([9]; captured protein ANAPC5, HeLa): 1.07; fold changes relative to vehicle control [10]: 0.88 fold and 1 fold; fold changes relative to vehicle control ([10]; HeLa, protein A8MV93_HUMAN (SIMILAR TO CYTOCHROME C.)): 1.12 fold; fold changes relative to vehicle control ([10]; HeLa, protein CTNNA1 (ISOFORM 2 OF CATENIN ALPHA-1.)): 2.07 fold; fold changes relative to vehicle control ([10]; HeLa, protein LOC646960): 1.08; fold changes relative to vehicle control ([10]; HeLa, protein LOC654188 (SIMILAR TO PEPT[…] A-LIKE.)): 0.91 fold; fold changes relative to vehicle control ([10]; protein EIF1AP1, HeLa): 0.97; fold changes relative to vehicle control ([10]; protein LOC442497, HeLa): 1.03; fold changes relative to vehicle control ([10]; protein RPLP0-LIKE, HeLa): 1.04"
NCCOCCOCC(=O)Nc1nc2ncc(CNc3ccc(C(=O)NC(CCC(=O)O)C(=O)O)cc3)nc2c(=O)[nH]1 (stereo not shown) [compound 6],1.17,1.01,0.96,1.27,1.13,1.25,1.17,1.03,1.3,1.7,1.27,1.05,1.04,0.88,1.03,1.05,"fold changes relative to vehicle control ([1]; HeLa, captured protein DDX3X): 0.9; fold changes relative to vehicle control ([2]; HeLa, protein BAG4 (BAG FAMILY MOLECULAR CHAPERONE REGULATOR 4)): 1.03; fold changes relative to vehicle control ([4]; HeLa, captured protein CSTF1): 0.88; fold changes relative to vehicle control ([7]; protein C2ORF47, HeLa): 0.99; fold changes relative to vehicle control ([8]; HeLa, protein MMS19): 0.97; fold changes relative to vehicle control ([9]; HeLa, captured protein ANAPC5): 1.05"
"Nc1nc2[nH]cc(CCc3ccc(C(=O)N[C@@H](CCC(=O)O)C(=O)O)cc3)c2c(=O)[nH]1 [PTX, pemetrexed]",,,,0.95,1.08,1.19,1.19,0.49,1.12,1.4,1.08,1.09,1,0.92,0.94,0.95,fold changes relative to vehicle control [1]: 0.86; fold changes relative to vehicle control [2]: 1.05; fold changes relative to vehicle control [3]: 1; fold changes relative to vehicle control [4]: 0.99; fold changes relative to vehicle control [5]: 0.83; fold changes relative to vehicle control [6]: 0.98; fold changes relative to vehicle control [7]: 0.92; fold changes relative to vehicle control [8]: 0.82; fold changes relative to vehicle control [9]: 1.07
